Where “and” joins values, the source holds several entries; their conditions need not be identical. Identical values can stand only once. Entries after “also recorded” stand apart in the source; their conditions may differ.
How the values were obtained:
[1] = tested on: tumors obtained from U87-MG grafts on the CAM; assay: Experimental tumors from U87-MG grafts on the CAM: vascularization, Ki-67, vimentin; type: in vivo, chicken embryo; conditions: for Tumor vascularization, density of the vessels that irrigate the tumor (in words): topical 250 μg/mL; for Quantification of the Ki-67 labeling, Center 1 / Quantification of the Ki-67 labeling, Center 2 / Quantification of the Ki-67 labeling, Edge 1 / Quantification of the Ki-67 labeling, Edge 2: treated 48 hours; for Quantification of the Ki-67 labeling, Center 1 / Quantification of the Ki-67 labeling, Center 2: tumor center; for Quantification of the Ki-67 labeling, Edge 1 / Quantification of the Ki-67 labeling, Edge 2: tumor edge
Description: To obtain a tumor, the U87-MG cells are inoculated at a rate of 200,000 cells in 75-cm^2 flasks in the presence of a basal medium. A volume that contains 4.10^6 cells is then sampled, and after centrifuging for 5 minutes with 311 g, the supernatant is eliminated, and the cells are resuspended in 20 μL of differential medium that is deposited in the center of a silicone ring that was previously applied on the CAM of an embryo at ED9. Once the grafting is done, the embryo is set out to incubate. At ED11, the tumors can be observed under a MZFL3 binocular (Leica, Paris, France). At this stage, the tumors are either treated topically (apical part of the tumor) by 30 μL of the oligopeptide according to the invention at 250 μg/mL or else by 30 μL of sterile distilled water up to stage ED13. The tumors are then sampled, and cryosections are produced to make possible immunohistochemical analyses. […] The macroscopic observations of tumors as well as the diffusion of fluorescein into the vessels are made with a fluorescence binocular (MZFL3, Leica, France).
A volume that contains 4.10^6 cells is then sampled and after centrifuging for 5 minutes with 300 g, the supernatant is eliminated, and the cells are resuspended in 20 μL of differential medium that is deposited in the center of a silicone ring that was previously applied on the CAM of an embryo at ED9. Once the grafting has been done, the embryo is set out to incubate.
At ED11, the tumors can be observed under a MZFL3 binocular (Leica, Paris, France), and it is possible to track the change in the tumor growth up to ED14.
The tumors that are developed on the CAM are observed on the chorioallantoic membrane using a MZFL3-type binocular (Leica, France) before being sampled.
The vascular endothelium of the vessels of a chicken is labeled using a lectin, SNA-1 (Sambuccus Nigra Agglutinin-1, Vector Laboratories), coupled to FITC (fluorescein isothiocyanate).
After 10 minutes of attachment with 200 μL of 4% PBS 1X-PFA at ambient temperature, the sections are incubated with a solution of 0.05% TBS 1X-Tween-0.1% Trypsin, pH 7.6, for 10 minutes. They are then washed 3 times in PBS 1X, and 100 μL of a dilution with 1/200th of the SNA-1 lectin in a solution of 0.05% TBS 1X-Tween with pH 7.6 is applied for 1 hour. After washing cycles (the last of which is carried out with distilled water), the slides are then mounted as described in the preceding paragraph and observed with a fluorescence microscope. Counts of vessels were made from photos with a magnification ×100 and in a marginal zone spreading 600 μm from the edge of the tumor. An ANOVA-type statistical test was then carried out to validate the relevance of the effect observed. The SNA-1 lectin specifically labels the chicken endothelial cells that constitute the vascular wall.
The tumors are attached in 4% PBS 1X-PFA (24 hours) and then dehydrated in absolute ethanol and then in pure toluene and next are enclosed and preserved in a paraffin block. 4-μm sections are made from a microtome and deposited on Superfrost plus slides, and then dried in an oven at 50° C. for one night.
To carry out the immunolabeling, the sections are dewaxed and then rehydrated by baths of decreasing concentrations of ethanol and then rinsed in PBS 1X.
So as to unmask the antigenic sites, the slides are incubated in a citrate buffer with pH 7 (200 μM of citric acid; 9.8 mmol of sodium citrate) and undergo a heating cycle (4×5 minutes at 750 W in the microwave). The endogenic peroxidases are inhibited by carrying out a 10-minute bath in methanol-5%H2O2. After 3 washing cycles, the saturation of PBS-3% BSA and then the incubation with the anti-Ki67 antibody are carried out. After rinsing with PBS 1X, an HRP-conjugated secondary antibody is applied for 1 hour at ambient temperature. […] A counter-staining is carried out in hematoxylin, and the sections are mounted in an aqueous solution before being observed with a Leica DMRX microscope.

[2] = tested on: genes in experimental tumors obtained from the CAM; assay: Quantitative analysis of the mRNA in experimental tumors obtained from CAM; type: in vivo, chicken; conditions: for Mean RQ ANGPT1 / Mean RQ ANGPT2 / Mean RQ CD36 / Mean RQ FGF2 / Mean RQ ITGB1 / Mean RQ KDR / Mean RQ PDGFB / Mean RQ PDGFRB / Mean RQ PLAU / Mean RQ TEK / Mean RQ TIE-1 / Mean RQ TIMP1 / Mean RQ TIMP4 / Mean RQ VEGFA: CAM tumors, relative expression, control = 1, triplicate; for Increase of expression of genes coding for the receptors (ITGB1, PDGFRβ, KDR, TIE-1, TIE-2, CD36) in relation to the control: experimental tumors obtained from the CAM
Source text: These receptors belong to the chicken species and are therefore found in the host vessels. […] Furthermore, the overexpression of ITGB1 at the same time as that of CD36 differentiates the peptide according to the invention (NX) from the TSP-1 (TSP).

[3] = Toxicity on injection; type: in vivo; conditions: injections of 20 mg/kg
[4] = U87-MG tumor on CAM, listed as TSP1

| Increase of expression of genes coding for the receptors (ITGB1, PDGFRβ, KDR, TIE-1, TIE-2, CD36) in relation to the control [2] | Substance | Mean RQ ANGPT1 [2] | Mean RQ ANGPT2 [2] | Mean RQ CD36 [2] | Mean RQ FGF2 [2] | Mean RQ ITGB1 [2] | Mean RQ KDR [2] | Mean RQ PDGFB [2] | Mean RQ PDGFRB [2] | Mean RQ PLAU [2] | Mean RQ TEK [2] | Mean RQ TIE-1 [2] | Mean RQ TIMP1 [2] | Mean RQ TIMP4 [2] | Mean RQ VEGFA [2] | further results |
| --- | --- | --- | --- | --- | --- | --- | --- | --- | --- | --- | --- | --- | --- | --- | --- | --- |
| on a lesser scale | thrombospondin 1 [TSP, reference compound] | 0.5106 | 0.2678 | 2.965 | 0.3429 | 1.317 | 1.557 | 0.6327 | 2.544 | 1.491 | 1.385 | 1.79 | 0.4492 | 0.6642 | 0.5392 | Tumor vascularization, density of the vessels that irrigate the tumor (in words) ([1]; U87-MG tumor on CAM): produces the same effects but to a lesser degree; Quantification of the Ki-67 labeling, Center 1 [1, 4]: 300 and 233; Quantification of the Ki-67 labeling, Center 2 [1, 4]: 292 and 350; Quantification of the Ki-67 labeling, Edge 1 [1, 4]: 227 and 286; Quantification of the Ki-67 labeling, Edge 2 [1, 4]: 314 and 228 |
| 4 factor | —W—S-G-W—S—S—C—S—R—S—C-G- (WSGWSSCSRSCG; Oligopeptide derived from SCO-Spondin) [NX] | 0.8241 | 0.6787 | 3.831 | 0.686 | 4.07 | 4.207 | 2.104 | 4.366 | 1.151 | 4.539 | 3.961 | 1.237 | 0.6552 | 1.298 | Time to disappearance of pinkish color (capillaries on the surface of the tumor) ([1]; CAM tumors 1 to 2 mm in diameter): ≤ 24 h; SNA-1 labeling of vessels on tumor sections ([1]; U87-MG tumor on CAM): the SNA-1 labeling disappears more specifically into the zone that is close to the surface of the tumor; Tumor vascularization, density of the vessels that irrigate the tumor (in words) ([1]; U87-MG tumor on CAM, listed as oligopeptide according to the invention): more effective than the TSP-1; also recorded: significant reduction in the density of the vessels that irrigate the tumor; Quantification of the Ki-67 labeling, Center 1 ([1]; U87-MG tumor on CAM): 355.5 and 369; Quantification of the Ki-67 labeling, Center 2 ([1]; U87-MG tumor on CAM): 383.5 and 370; Quantification of the Ki-67 labeling, Edge 1 ([1]; U87-MG tumor on CAM): 165 and 184; Quantification of the Ki-67 labeling, Edge 2 ([1]; U87-MG tumor on CAM): 172 and 153; Tumor cells expressing the vimentin ([1]; U87-MG tumor on CAM, vimentin/SNA-1 co-labeling): reduction in the number of differentiated tumor cells expressing the vimentin; Ki-67 labeling of tumor (in words) ([1]; tumors in the CAM model, peripheral zone): the peripheral zone does not express the Ki67 marker; Toxicity [3]: no toxicity |

— patent publication US20190255144A1, “SPECIFIC OLIGOPEPTIDES AS ANTI-ANGIOGENIC DRUGS” (NEURONAX, priority 2014, published 2019)
